Measured values: PMC10584003 (The Journal of Clinical Endocrinology and Metabolism, 2023)
“Also recorded” adds a separate entry of the source.

How the values were obtained:
[1] = test system: GLP-1R, alanine at position 155; details: ref [46]; cited from earlier work
GLP-1R R421C = details: naturally occurring variant R421C; agonist not given; ref [42]; cited from earlier work
GLP-1R A316T [2] = details: A316T variant; agonist not given; ref [49]; cited from earlier work
[3] = test system: GLP-1R variants S79L, R421W, and A449V; test: β-arrestin 2 recruitment; assay type: cell-based, human; details: HEK293 cells, BRET with GRK6, LoS variants S79L
[4] = test system: GLP-1R, alanine at position 87; details: ref [44]; cited from earlier work
[5] = test system: 26 WT-like GLP-1R variants; test: β-arrestin 2 recruitment; assay type: cell-based, human; details: HEK293 cells, BRET with GRK6, 26 WT-like variants
[6] = test system: GLP-1R, alanine at position 155; details: ref [46]; cited from earlier work; remark: listed apart in the source
[7] = test system: 26 WT-like GLP-1R variants; test: cAMP measurement; assay type: cell-based, human; details: COS-7 cells
[8] = test system: GLP-1R P7L, R131Q, G168S, and A316T; test: GLP-1R signaling, variants P7L, R131Q, G168S, A316T; assay type: cell-based, human; details: present study, COS-7 and HEK-293 cells
[9] = test system: GLP-1R, alanine at position 353; details: alanine mutation at position 353; ref [46]; cited from earlier work
[10] = test system: GLP-1R, alanine at position 87; details: ref [44]; cited from earlier work; remark: listed apart in the source
GLP-1R A316T [11] = details: A316T variant; agonist not given; ref [49]; cited from earlier work; remark: listed apart in the source
[12] = test system: GLP-1R variants S79L, W87R, R310W, R421W, and A449V; test: Homologous competition binding, 5 LoS variants with maintained binding; set-up: species or system human; details: COS-7 cells
[13] = test system: GLP-1R variants E34*, W87R, H99Qfs*83, S155F, F169Sfs*13, R310W, and T353M; test: β-arrestin 2 recruitment; assay type: cell-based, human; details: HEK293 cells, BRET with GRK6, LoS variants E34*
GLP-1R R310W = details: top of transmembrane helix 5, agonist not given, ref [45]; cited from earlier work
[14] = test system: GLP-1R variants E34*, H99Qfs*83, S155F, F169Sfs*13, and T353M; test: Homologous competition binding, 5 LoS variants without binding; set-up: species or system human; details: COS-7 cells, 125I-GLP-1(7-36)NH2, LoS variants E34*, F169Sfs*13, T353M
GLP-1R F321S and F66L = test: cAMP signaling, variants F66L and F321S; assay type: cell-based, human; details: COS-7 cells, predicted pLoF

glucagon-like peptide 1 [GLP-1]
GLP-1 affinity, alanine at position 155, result in words [1]: affected cAMP production and GLP-1 affinity
cAMP signaling, R421C, result in words (GLP-1R R421C): no effect on cAMP signaling
signaling and binding, A316T, result in words (GLP-1R A316T [2]): WT-like signaling and binding properties
β-arrestin 2 recruitment, result in words [3]: maintained β-arrestin 2 recruitment
GLP-1 binding, alanine at position 87, result in words [4]: no altered GLP-1 binding
β-arrestin 2 recruitment, result in words [5]: WT-like β-arrestin 2 recruitment
β-arrestin 2 recruitment average Emax ([5]; average, ± 6.6% (SEM)): 90.2 % of WT
cAMP production, alanine at position 155, result in words [6]: affected cAMP production
change in cAMP potency vs WT (WT-like criterion) ([7]; 26 WT-like variants, EC50 change vs WT): < 5 fold
cAMP Emax (WT-like criterion) ([7]; 26 WT-like variants, Emax of at least 50% of the WT Emax): at least 50 % of the WT Emax
cAMP production, result in words ([7]; 26 variants, compared to WT): cAMP production similar to WT GLP-1R
GLP-1R signaling, result in words [8]: WT-like GLP-1R signaling
cAMP production, alanine at position 353, result in words [9]: altered cAMP production
cAMP signaling, alanine at position 87, result in words [10]: no altered GLP-1 binding or cAMP signaling
β-arrestin recruitment, A316T (GLP-1R A316T [11]): 18 % of WT
GLP-1 binding, result in words [12]: maintained GLP-1 binding
β-arrestin 2 recruitment, result in words [13]: completely lost β-arrestin 2 recruitment
efficacy, R310W, result in words (GLP-1R R310W): reduce efficacy
receptor binding, result in words [14]: complete loss of binding; also recorded: no GLP-1 binding
cAMP signaling, result in words (GLP-1R F321S and F66L): normal cAMP signaling
